Data on 32 compounds can be found in ChEMBL document CHEMBL5543077, “A further pocket or conformational plasticity by mapping COX-1 catalytic site through modified-mofezolac structure-inhibitory activity relationships and their antiplatelet behavior” (Eur J Med Chem, 2024).

Series [1] has as its target T1, Prostaglandin G/H synthase 1 (Ovis aries, UniProt P05979).
T1 sequence (P05979 whole entry): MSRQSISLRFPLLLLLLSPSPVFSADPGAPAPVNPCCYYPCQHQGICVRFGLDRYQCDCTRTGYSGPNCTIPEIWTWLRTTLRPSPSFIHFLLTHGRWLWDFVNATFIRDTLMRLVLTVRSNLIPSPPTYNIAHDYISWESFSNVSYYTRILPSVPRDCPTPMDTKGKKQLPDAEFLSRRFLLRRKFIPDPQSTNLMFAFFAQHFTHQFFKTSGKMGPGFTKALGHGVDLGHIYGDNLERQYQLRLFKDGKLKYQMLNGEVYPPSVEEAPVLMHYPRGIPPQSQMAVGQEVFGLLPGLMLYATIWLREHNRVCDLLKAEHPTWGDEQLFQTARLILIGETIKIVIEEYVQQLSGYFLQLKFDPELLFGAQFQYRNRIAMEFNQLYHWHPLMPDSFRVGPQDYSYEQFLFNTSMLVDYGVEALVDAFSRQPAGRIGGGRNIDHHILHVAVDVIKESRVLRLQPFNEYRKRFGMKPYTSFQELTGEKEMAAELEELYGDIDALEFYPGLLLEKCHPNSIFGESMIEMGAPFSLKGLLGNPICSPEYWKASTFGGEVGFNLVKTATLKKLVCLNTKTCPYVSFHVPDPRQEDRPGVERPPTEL
Description: Inhibition of ovine COX-1

In series [2] the target is T2, Prostaglandin G/H synthase 2 (Homo sapiens, UniProt P35354).
T2 sequence (P35354 whole entry): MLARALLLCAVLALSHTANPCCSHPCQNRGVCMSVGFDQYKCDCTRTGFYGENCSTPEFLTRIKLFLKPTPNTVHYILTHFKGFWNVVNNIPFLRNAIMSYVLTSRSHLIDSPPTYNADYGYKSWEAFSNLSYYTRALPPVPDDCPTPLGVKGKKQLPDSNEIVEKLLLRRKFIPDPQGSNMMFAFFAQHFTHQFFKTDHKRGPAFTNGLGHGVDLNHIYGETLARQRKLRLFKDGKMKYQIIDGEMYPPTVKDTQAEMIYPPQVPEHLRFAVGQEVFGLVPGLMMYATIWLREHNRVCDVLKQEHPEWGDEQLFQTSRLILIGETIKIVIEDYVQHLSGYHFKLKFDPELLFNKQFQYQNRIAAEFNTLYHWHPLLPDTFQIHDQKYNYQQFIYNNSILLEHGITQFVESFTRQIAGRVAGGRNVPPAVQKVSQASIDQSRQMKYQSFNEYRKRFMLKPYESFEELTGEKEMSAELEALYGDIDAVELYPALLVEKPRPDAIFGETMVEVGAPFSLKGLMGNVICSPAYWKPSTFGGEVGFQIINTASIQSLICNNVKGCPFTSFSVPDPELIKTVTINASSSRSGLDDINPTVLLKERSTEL

The target in series [3] is T2, Prostaglandin G/H synthase 2. This is another data set of the same source.
Description: Inhibition of human COX-2 by colorimetric assay
Series [4] addresses T1, Prostaglandin G/H synthase 1. The source holds these as a separate data set.
Description: Inhibition of ovine COX-1 by colorimetric assay
Series [5] concerns the target T2, Prostaglandin G/H synthase 2. The source holds these as a separate data set.
Description: Inhibition of recombinant human COX-2 measured after 5 mins by absorbance based analysis
Series [6] is described as follows: in vitro. To be noted: chlorocebus sabaeus, vero.
Description: Cytotoxicity against African green monkey Vero cells assessed as cell viability at 100 uM measured after 24 hrs by MTT assay relative to control
The nature of series [7]: in vitro. To be noted: human, erythrocyte.
Description: Hemolytic activity in human red blood cells assessed as hemolysis at 100 uM measured after 3 hrs by microplate reader assay relative to control
Series [8] has as its system Platelet. Briefly: cells. The class given is functional, cell-based. To be noted: Homo sapiens, 2 min.
Description: Antiplatelet activity in human platelets assessed as inhibition of arachidonic acid-induced platelet aggregation measured after 2 mins by turbidimetric analysis
Series [9] deals with T1, Prostaglandin G/H synthase 1. This is another data set of the same source.
Description: Inhibition of ovine COX-1 measured after 5 mins by absorbance based analysis

A value given as a limit tells only on which side of the number the result lay.

As usually defined, the IC50 is the concentration needed to halve the response being measured. With `CCc1onc(-c2ccccc2)c1-c1ccccc1`, the IC50 in series [1] is 0.05 µM; in [2] it was greater than 1.49 µM.
In the case of `Cc1onc(-c2ccc(Cl)o2)c1-c1ccccc1`, in series [2], the half-inhibitory concentration (IC50) was greater than 100 µM.
`Cc1onc(-c2ccccc2)c1-c1ccccc1` yielded a half-inhibitory concentration (IC50) in [1] of 0.09 µM.
`Cc1onc(-c2ccc(OCc3ccccc3)cc2)c1-c1ccc(OCc2ccccc2)cc1`: the concentration for half-maximal inhibition (IC50) in series [3] and in series [4] was greater than 50 µM in each case.
Regarding `CCCCOc1ccc(-c2c(-c3ccc(OC)cc3)noc2C)cc1`, the IC50 in series [3] and in series [4] was greater than 50 µM throughout.
Turning to `C=CCc1cccc(-c2nc(-c3ccccc3Cl)c(-c3ccccc3Cl)[nH]2)c1OC(=O)COC`, in [5], the IC50 is greater than 100 µM.
For `O=C(O)Cc1onc(-c2ccc(OCc3ccccc3)cc2)c1-c1ccc(OCc2ccccc2)cc1`, the 50% inhibitory concentration (IC50) in [3] and in [4] was greater than 50 µM throughout.
For `O=C(O)Cc1onc(-c2ccc(Oc3ccccc3)cc2)c1-c1ccc(Oc2ccccc2)cc1`, the IC50 in [3] and in [4] was greater than 50 µM each time.
The viability is a per cent measure of how many cells are alive, often set against a control. Higher therefore signals less harm to the cells. As to `CCCCOc1ccc(-c2noc(CC(=O)O)c2-c2ccc(OCCCC)cc2)cc1`, the IC50 in series [3] was greater than 50 µM; in series [4], 0.053 µM; in [8], greater than 100 µM. In addition, in series [6], the viability at 24 h, 100 µM was greater than 70%. This compound also had a hemolysis at 3 h, 100 µM in [7] of 0%.
For the compound `CCCCOc1ccc(-c2noc(C)c2-c2ccc(OCCCC)cc2)cc1`, the 50% inhibitory concentration (IC50) in series [3] and in series [4] was greater than 50 µM each time.
Take `CCOc1ccc(-c2noc(C)c2-c2ccc(OCC)cc2)cc1`: the half-inhibitory concentration (IC50) in series [3] was greater than 50 µM; in [4] it was 0.23 µM; in series [8] it was 1 µM. In [6], this compound gave a viability at 24 h, 100 µM greater than 70%. Besides, in [7], the hemolysis at 3 h, 100 µM worked out at 0%.
For the compound `CCCOc1ccc(-c2noc(C)c2-c2ccc(OCCC)cc2)cc1`, the IC50 in series [3] and in series [4] was greater than 50 µM throughout.
As to `Cc1onc(-c2ccc(OC(C)(C)C)cc2)c1-c1ccc(OC(C)(C)C)cc1`, the IC50 in series [3] and in series [4] was greater than 50 µM in each case.
As to `CCCOc1ccc(-c2c(-c3ccc(OC)cc3)noc2C)cc1`, the figures for the IC50 in [3] and in series [4] were greater than 50 µM and 1.3 µM, respectively. Further, the hemolysis at 3 h, 100 µM in series [7] was found to be 0%.
Take `CCOc1ccc(-c2noc(CC(=O)O)c2-c2ccc(OCC)cc2)cc1`: the IC50 in series [3] is greater than 50 µM; in [4], 0.12 µM; in [8], 0.7 µM. The same compound came in with a viability at 24 h, 100 µM in series [6] greater than 70%. In [7], this compound registered a hemolysis at 3 h, 100 µM of 0%.
Regarding `CCOc1ccc(-c2c(-c3ccc(OC)cc3)noc2CC(=O)O)cc1`, the IC50 in [3] was greater than 50 µM; in series [4], 0.12 µM; in [8] it was 29.5 µM. In series [6], this compound gave a viability at 24 h, 100 µM greater than 70%. Further, the hemolysis at 3 h, 100 µM in series [7] turned out to be 0%.
With `CCCOc1ccc(-c2c(-c3ccc(OC)cc3)noc2CC(=O)O)cc1`, the 50% inhibitory concentration (IC50) in [3] stood at 6.9 µM; in [4], 0.079 µM; in series [8] it was 72.1 µM. In addition, the viability at 24 h, 100 µM in series [6] was greater than 70%. Also, the hemolysis at 3 h, 100 µM in series [7] amounted to 0%.
Turning to `CCCCOc1ccc(-c2c(-c3ccc(OC)cc3)noc2CC(=O)O)cc1`, the concentration for half-maximal inhibition (IC50) amounted to 0.45 µM in [3] and 0.32 µM in [4].
Consider `Cc1onc(-c2ccc(Oc3ccccc3)cc2)c1-c1ccc(Oc2ccccc2)cc1`, for which the 50% inhibitory concentration (IC50) in series [3] and in [4] was greater than 50 µM in each case.
On to `C=CCc1cccc(-c2nc(-c3ccccc3Cl)c(-c3ccccc3Cl)[nH]2)c1OC(C)=O`, for which the IC50 in series [5] and in [9] was greater than 100 µM each time.
Consider `CCOc1ccc(-c2c(-c3ccc(OC)cc3)noc2C)cc1`, for which the IC50 in series [3] is greater than 50 µM; in series [4], 0.046 µM; in series [8] it was 2.5 µM. For the same compound, in series [6], the viability at 24 h, 100 µM amounted to 64%.
Take `CCOc1ccc(N)cc1C(=O)Nc1cccc(C(F)(F)F)c1`: the half-maximal inhibitory concentration (IC50) in series [1] is 3.2 µM; in [2] it was greater than 100 µM.
Take `COc1ccc(-c2noc(C)c2-c2ccc(OCc3ccccc3)cc2)cc1`: the half-maximal inhibitory concentration (IC50) in series [3] and in series [4] was greater than 50 µM each time.
With `COc1ccc(-c2noc(CC(=O)O)c2-c2ccc(OC(C)(C)C)cc2)cc1`, the IC50 in [3] and in [4] was greater than 50 µM in each case.
Take `COc1ccc(-c2noc(CC(=O)O)c2-c2ccc(OCc3ccccc3)cc2)cc1`: the half-inhibitory concentration (IC50) in series [3] is greater than 50 µM; in series [4] it was 0.45 µM; in [8], greater than 100 µM. In [6], the viability at 24 h, 100 µM is greater than 70%. For the same compound, the hemolysis at 3 h, 100 µM in series [7] was 0%.
Regarding `COc1ccc(-c2noc(C)c2-c2ccc(Oc3ccccc3)cc2)cc1`, the IC50 in [3] and in series [4] was greater than 50 µM in each case.
In the case of `CCCOc1ccc(-c2noc(CC(=O)O)c2-c2ccc(OCCC)cc2)cc1`, the results for the half-inhibitory concentration (IC50) in series [3] and in [4] were 3.6 µM and greater than 50 µM, respectively.
As to `CC(C)(C)Oc1ccc(-c2noc(CC(=O)O)c2-c2ccc(OC(C)(C)C)cc2)cc1`, the half-inhibitory concentration (IC50) in series [3] and in series [4] was greater than 50 µM in each case.
As to `COc1ccc(-c2noc(C)c2-c2ccc(OC(C)(C)C)cc2)cc1`, the IC50 in [3] and in series [4] was greater than 50 µM each time.
Turning to `COc1ccc(-c2noc(CC(=O)O)c2-c2ccc(Oc3ccccc3)cc2)cc1`, the IC50 in [3] and in [4] was greater than 50 µM in each case.
`CC(=O)Oc1ccccc1C(=O)O` [ASPIRIN]: in [8], it took 36.2 µM to reach half-maximal inhibition (IC50).
`COc1ccc(-c2nc(C(=O)N3CCN(C)CC3)sc2-c2ccc(OC)cc2)cc1` [FR-122047] yielded an IC50 in series [1] of 0.028 µM.
